Patent US9682967B2

Molecular target: hSortilin (Homo sapiens (Human), UniProt Q99523)
Test: hSortilin affinity assay (displacement of 3H-neurotensin, SPA)
Format: binding
Details: for IC50: [3H]-Neurotensin 5 nM, 150 nM 6his-Sortilin, read-out: hSortilin NTS Binding IC50; for Ki: from IC50 by Cheng-Prusoff, Kd neurotensin 100 nM

Chain of hSortilin (Q99523 34-755): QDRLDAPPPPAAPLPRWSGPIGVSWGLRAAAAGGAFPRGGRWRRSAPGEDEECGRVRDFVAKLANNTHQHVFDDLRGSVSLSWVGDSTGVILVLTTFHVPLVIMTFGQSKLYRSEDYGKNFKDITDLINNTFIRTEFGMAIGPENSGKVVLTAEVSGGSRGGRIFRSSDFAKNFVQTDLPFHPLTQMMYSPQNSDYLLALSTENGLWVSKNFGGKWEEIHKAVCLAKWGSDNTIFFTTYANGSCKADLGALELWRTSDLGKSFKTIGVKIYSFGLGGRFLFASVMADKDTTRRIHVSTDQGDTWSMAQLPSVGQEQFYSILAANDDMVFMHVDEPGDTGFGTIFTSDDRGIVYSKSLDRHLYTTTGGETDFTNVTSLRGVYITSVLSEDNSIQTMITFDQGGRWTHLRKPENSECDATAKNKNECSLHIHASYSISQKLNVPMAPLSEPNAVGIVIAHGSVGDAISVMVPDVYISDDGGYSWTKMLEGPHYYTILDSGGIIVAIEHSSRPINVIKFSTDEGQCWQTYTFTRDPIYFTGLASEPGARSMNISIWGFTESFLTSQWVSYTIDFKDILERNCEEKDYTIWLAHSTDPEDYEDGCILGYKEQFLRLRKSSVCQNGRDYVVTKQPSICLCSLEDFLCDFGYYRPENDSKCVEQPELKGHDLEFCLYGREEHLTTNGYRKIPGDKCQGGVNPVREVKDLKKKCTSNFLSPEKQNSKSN

Structure (SMILES) | IC50 | Ki
O=C(O)c1cc(Br)ccc1C(=O)Nc1cccc(Cl)n1 [Example 22, 5-Bromo-N-(6-chloro-pyridin-2-yl)-phthalamic acid] | 1.6 µM | 1.52 µM
CCCc1ccc(C(=O)Nc2cccc(C)n2)c(C(=O)O)c1 [Example 41, N-(6-Methyl-pyridin-2-yl)-5-propyl-phthalamic acid] | 3.6 µM | 3.43 µM
Cc1ccc(C(=O)Nc2cccc(C)n2)c(C(=O)O)c1 [Example 3, 5-Methyl-N-(6-methyl-pyridin-2-yl)-phthalamic acid] | 6.4 µM | 6.09 µM
Cc1cccc(NC(=O)c2cc(Cl)c(Cl)cc2C(=O)O)n1 [Example 5, 4,5-Dichloro-N-(6-methyl-pyridin-2-yl)-phthalamic acid] | 0.83 µM | 0.79 µM
O=C(O)c1cc(C(F)(F)F)ccc1C(=O)Nc1ncc(C(F)(F)F)cc1Cl [Example 16, 2-((3-chloro-5-(trifluoromethyl)pyridin-2-yl)carbamoyl)-5-(trifluoromethyl)benzoic acid] | 0.36 µM | 0.343 µM
Cc1nccc(NC(=O)c2ccc(Br)cc2C(=O)O)n1 [Example 34, 5-Bromo-N-(2-methyl-pyrimidin-4-yl)-phthalamic acid] | 0.49 µM | 0.467 µM
Cc1ccc(NC(=O)c2ccc(C(F)(F)F)cc2C(=O)O)nc1C [Example 7, N-(5,6-Dimethyl-pyridin-2-yl)-5-trifluoromethyl-phthalamic acid] | 0.17 µM | 0.162 µM
Cc1cc(NC(=O)c2ccc(C(F)(F)F)cc2C(=O)O)ccn1 [Example 9, N-(2-methyl-pyridin-4-yl)-5-trifluoromethyl-phthalamic acid] | 0.7 µM | 0.667 µM
Cc1cc(NC(=O)c2ccc(Br)cc2C(=O)O)ncn1 [Example 35, 5-Bromo-N-(6-methyl-pyrimidin-4-yl)-phthalamic acid] | 2 µM | 1.91 µM
O=C(O)c1cc(C(F)(F)F)ccc1C(=O)Nc1ccc2c(n1)CCCC2 [Example 46, 2-((5,6,7,8-tetrahydroquinolin-2-yl)carbamoyl)-5-(trifluoromethyl)benzoic acid] | 0.088 µM | 0.084 µM
Cc1csc(NC(=O)c2ccc(Br)cc2C(=O)O)n1 [Example 28, 5-Bromo-N-(4-methyl-thiazol-2-yl)-phthalamic acid] | 3.6 µM | 3.43 µM
COc1cc(NC(=O)c2ccc(C(F)(F)F)cc2C(=O)O)ccn1 [Example 36, N-(2-Methoxy-pyridin-4-yl)-5-trifluoromethyl-phthalamic acid] | 0.75 µM | 0.714 µM
Cc1cccc(NC(=O)c2ccc(C(C)C)cc2C(=O)O)n1 [Example 43, N 5-Isopropyl-N-(6-methyl-pyridin-2-yl)-phthalamic acid] | 1.1 µM | 1.05 µM
Cc1nccc(NC(=O)c2ccc(C(F)(F)F)cc2C(=O)O)n1 [Example 44, 2-((2-methylpyrimidin-4-yl)carbamoyl)-5-(trifluoromethyl)benzoic acid] | 0.3 µM | 0.286 µM
Cc1cccc(NC(=O)c2ccc(Cl)c(F)c2C(=O)O)n1 [Example 14, 5-Chloro-6-fluoro-N-(6-methyl-pyridin-2-yl)-phthalamic acid] | 4.2 µM | 4 µM
Cc1cccc(NC(=O)c2cc(C(F)(F)F)c(C(F)(F)F)cc2C(=O)O)n1 [Example 47, 2-((6-methylpyridin-2-yl)carbamoyl)-4,5-bis(trifluoromethyl)benzoic acid] | 1.2 µM | 1.14 µM
Cc1ccc(NC(=O)c2cc(Cl)c(Cl)cc2C(=O)O)nc1C [Example 11, 4,5-Dichloro-N-(5,6-Dimethyl-pyridin-2-yl)-phthalamic acid] | 0.48 µM | 0.457 µM
O=C(O)c1cc(Br)ccc1C(=O)Nc1ccc(Cl)cn1 [Example 20, 5-Bromo-N-(5-chloro-pyridin-2-yl)-phthalamic acid] | 0.99 µM | 0.943 µM
Cc1nccc(NC(=O)c2cc(Cl)c(Cl)cc2C(=O)O)n1 [Example 13, 4,5-Dichloro-N-(2-methyl-pyrimidin-4-yl)-phthalamic acid] | 0.48 µM | 0.457 µM
O=C(O)c1cc(C(F)(F)F)ccc1C(=O)NCc1ccccn1 [Example 38, N-Pyridin-2-ylmethyl-5-trifluoromethyl-phthalamic acid] | 1.6 µM | 1.52 µM

The remaining compounds from weak to strong by IC50, led by results:

IC50 | Ki | Structure (SMILES)
7.5 µM | 7.14 µM | O=C(O)c1cc(C(F)(F)F)ccc1C(=O)NCc1ccncc1 [Example 39, N-Pyridin-4-ylmethyl-5-trifluoromethyl-phthalamic acid]
5.5 µM | 5.24 µM | O=C(O)c1cc(Br)ccc1C(=O)Nc1cccnc1 [Example 26]
5.2 µM | 4.95 µM | C=C(C)c1ccc(C(=O)Nc2cccc(C)n2)c(C(=O)O)c1 [Example 42, N 5-Isopropenyl-N-(6-methyl-pyridin-2-yl)-phthalamic acid]
4.8 µM | 4.57 µM | O=C(O)c1cc(C(F)(F)F)ccc1C(=O)NCc1cccnc1 [Example 40, N-Pyridin-3-ylmethyl-5-trifluoromethyl-phthalamic acid]
4 µM | – | N#Cc1c(NC(=O)c2ccc(Br)cc2C(=O)O)sc2c1CCCC2 [Example 6]
3.6 µM | 3.43 µM | O=C(O)c1cc(Br)ccc1C(=O)Nc1ccccn1 [Example 21, 5-Bromo-N-pyridin-2-yl-phthalamic acid]
3.4 µM | 3.24 µM | Cc1cccc(NC(=O)c2cc(C)c(C)cc2C(=O)O)n1 [Example 15, 4,5-Dimethyl-N-(6-methyl-pyridin-2-yl)-phthalamic acid]
3.2 µM | 3.05 µM | Cc1ccc(NC(=O)c2ccc(Br)cc2C(=O)O)nn1 [Example 32, 5-Bromo-N-(6-methyl-pyridazin-3-yl)-phthalamic acid]
2.4 µM | 2.29 µM | Cc1ccnc(NC(=O)c2ccc(Br)cc2C(=O)O)c1 [Example 24, 5-Bromo-N-(4-methyl-pyridin-2-yl)-phthalamic acid]
2.2 µM | 2.1 µM | Cc1ccnc(NC(=O)c2cc(Cl)c(Cl)cc2C(=O)O)c1 [Example 10, 4,5-Dichloro-N-(4-methyl-pyridin-2-yl)-phthalamic acid]
2.1 µM | 2 µM | O=C(O)c1cc(Br)ccc1C(=O)Nc1ccc(Cl)c(Cl)n1 [Example 30, 5-Bromo-N-(5,6-dichloro-pyridin-2-yl)-phthalamic acid]
1.8 µM | 1.71 µM | Cc1cc(NC(=O)c2ccc(Br)cc2C(=O)O)ccn1 [Example 25, 5-Bromo-N-(2-methyl-pyridin-4-yl)-phthalamic acid]
1.8 µM | 1.71 µM | Cc1cc(NC(=O)c2cc(Cl)c(Cl)cc2C(=O)O)ccn1 [Example 12, 4,5-Dichloro-N-(2-methyl-pyridin-4-yl)-phthalamic acid]
1.7 µM | 1.62 µM | Cc1ccc(NC(=O)c2ccc(Br)cc2C(=O)O)nc1 [Example 19, 5-Bromo-N-(5-methyl-pyridin-2-yl)-phthalamic acid]
1.4 µM | 1.33 µM | Cc1cccc(NC(=O)c2ccc(Cl)cc2C(=O)O)n1 [Example 4, 5-Chloro-N-(6-methyl-pyridin-2-yl)-phthalamic acid]
1.3 µM | 1.24 µM | O=C(O)c1cc(Br)ccc1C(=O)Nc1ccc2ccccc2n1 [Example 29, 5-Bromo-N-quinolin-2-yl-phthalamic acid]
1.3 µM | 1.24 µM | COc1cccc(NC(=O)c2ccc(C(F)(F)F)cc2C(=O)O)n1 [Example 37, N-(6-Methoxy-pyridin-2-yl)-5-trifluoromethyl-phthalamic acid]
1.2 µM | 1.14 µM | Cc1cccc(NC(=O)c2ccc(Br)cc2C(=O)O)n1 [Example 2, 5-Bromo-N-(6-methyl-pyridin-2-yl)-phthalamic acid]
1 µM | 0.952 µM | Cc1ccnc(NC(=O)c2ccc(C(F)(F)F)cc2C(=O)O)c1 [Example 8, N-(4-methyl-pyridin-2-yl)-5-trifluoromethyl-phthalamic acid]
0.97 µM | 0.924 µM | Cc1cc(C)nc(NC(=O)c2ccc(Br)cc2C(=O)O)c1 [Example 33, 5-Bromo-N-(4,6-dimethyl-pyridin-2-yl)-phthalamic acid]
0.76 µM | 0.721 µM | O=C(O)c1cc(C(F)(F)F)c(C(F)(F)F)cc1C(=O)Nc1ccc2c(n1)CCCC2 [Example 48, 2-((5,6,7,8-tetrahydroquinolin-2-yl)carbamoyl)-4,5-bis(trifluoromethyl)benzoic acid]
0.75 µM | 0.734 µM | Cc1ccc(NC(=O)c2cc(C(F)(F)F)c(C(F)(F)F)cc2C(=O)O)nc1C [Example 49, 2-((5,6-dimethylpyridin-2-yl)carbamoyl)-4,5-bis(trifluoromethyl)benzoic acid]
0.62 µM | 0.599 µM | Cc1nccc(NC(=O)c2cc(C(F)(F)F)c(C(F)(F)F)cc2C(=O)O)n1 [Example 50, 2-((2-methylpyrimidin-4-yl)carbamoyl)-4,5-bis(trifluoromethyl)benzoic acid]
0.57 µM | 0.543 µM | Cc1ccc(NC(=O)c2ccc(Br)cc2C(=O)O)nc1C [Example 23, 5-Bromo-N-(5,6-dimethyl-pyridin-2-yl)-phthalamic acid]
0.36 µM | 0.343 µM | Cc1ccnc(NC(=O)c2ccc(C(F)(F)F)cc2C(=O)O)n1 [Example 17, 2-((4-methylpyrimidin-2-yl)carbamoyl)-5-(trifluoromethyl)benzoic acid]
0.24 µM | 0.229 µM | Cc1ncc(NC(=O)c2ccc(C(F)(F)F)cc2C(=O)O)nc1C [Example 18, 2-((5,6-dimethylpyrazin-2-yl)carbamoyl)-5-(trifluoromethyl)benzoic acid]
0.2 µM | 0.19 µM | Cc1cnc(NC(=O)c2ccc(C(F)(F)F)cc2C(=O)O)nc1C [Example 45, 2-((4,5-dimethylpyrimidin-2-yl)carbamoyl)-5-(trifluoromethyl)benzoic acid]
